Series [1] relates to H9c2. As to the kind of experiment: Cardioprotective activity against rat H9c2 cells assessed as reduction in H2O2-induced cell death at 50 uM preincubated for 24 hrs followed by H2O2 stimulation and measured after 1 hr by CCK8 assay. It is filed as functional, cell-based. The settings on record: time 25.0 hrs. On the technique in general: Tetrazolium dyes change colour on reduction, which living cells bring about.

In series [2] the test system is H9c2. Briefly: Cytotoxicity against rat H9c2 cells assessed as reduction in cell viability at 50 uM measured after 24 hrs by CCK8 assay. It is filed as cell-based. To be noted: h9c2, 24 h.
Series [3] concerns H9c2. Briefly: Cardioprotective activity against rat H9c2 cells assessed as reduction in H2O2-induced cell death preincubated for 24 hrs followed by H2O2 stimulation and measured after 1 hr by CCK8 assay. It is filed as functional, cell-based.
Series [4] relates to H9c2. As to the kind of experiment: Cardioprotective activity against rat H9c2 cells assessed as reduction in H2O2-induced ROS generation at 2 uM preincubated for 24 hrs followed by H2O2 stimulation and measured after 1 hr by DCFH-DA staining based flow cytometry. It is filed as functional, cell-based. To be noted: time 25.0 hrs.
In series [5] the test system is H9c2. Briefly: Cardioprotective activity against rat H9c2 cells assessed as reduction in H2O2-induced apoptosis by measuring up regulation of Bcl2 expression at 2 uM preincubated for 24 hrs followed by H2O2 stimulation and measured after 1 hr by Western blot analysis. It is filed as functional, cell-based. The settings on record: time 25.0 hrs. A general note: A western blot detects proteins with antibodies after separation by electrophoresis.

The subject of series [6] is H9c2. Briefly: Cardioprotective activity against rat H9c2 cells assessed as reduction in H2O2-induced apoptosis by measuring down regulation of Bax expression at 2 uM preincubated for 24 hrs followed by H2O2 stimulation and measured after 1 hr by Western blot analysis. It is filed as functional, cell-based. To be noted: time 25.0 hrs.
The subject of series [7] is H9c2. Briefly: Cardioprotective activity in H2O2-induced mitochondrial membrane potential loss in rat H9c2 cells assessed as increase in MMP level at 2 uM preincubated for 24 hrs followed by H2O2 stimulation and measured after 1 hr by JC1 staining based flow cytometry. It is filed as functional, cell-based. The settings on record: time 25.0 hrs. A general note: Flow cytometry measures light scatter and fluorescence of single cells or particles in a stream.

Series [8] deals with H9c2. As to the kind of experiment: Activation of AMPKalpha in H2O2-induced rat H9c2 cells assessed as increase in AMPKalpha phosphorylation at […] residues at 2 uM preincubated for 24 hrs followed by H2O2 stimulation and measured after 1 hr by Western blot analysis. To be noted: filed as activator, time 25.0 hrs.
In series [9] the test system is H9c2. Briefly: Activation of AMPKalpha in H2O2-induced rat H9c2 cells assessed as reduction in AKT expression at 2 uM preincubated for 24 hrs followed by H2O2 stimulation and measured after 1 hr by Western blot analysis. The settings on record: filed as activator, time 25.0 hrs.
Series [10] has as its system H9c2. Briefly: Activation of AMPKalpha in H2O2-induced rat H9c2 cells assessed as reduction in mTOR expression at 2 uM preincubated for 24 hrs followed by H2O2 stimulation and measured after 1 hr by Western blot analysis. To be noted: filed as activator, time 25.0 hrs.

Calls of active or inactive are those of the source. No cut-off for these calls is given here.

Results on 6 molecules are retold here after ChEMBL document CHEMBL4706711, “Alkaloids of Delphinium grandiflorum and their implication to HO-induced cardiomyocytes injury” (Bioorg Med Chem, 2021).

Turning to `CO[C@H]1[C@@H]2C[C@@H]3[C@H]1[C@](O)(C[C@@H]2OC)[C@@]1(O)C2[N+]([O-])=C[C@]4(CO)CC[C@H](OC)[C@@]23[C@@H]4[C@@H]1OC`, in the series on H9c2 [1], the outcome was inactive.

On to `CCN1C2OC(=O)[C@]3(CO)CC[C@H](OC)C24[C@@H]2C[C@@H]5[C@H](OC)[C@@H]2[C@](O)(C[C@@H]5OC)[C@]1(O)[C@@H](OC)[C@@H]43`, for which the Activity entry in the series with H9c2 [2] is given as “Non-Toxic”. Further, the outcome in the series with H9c2 [1] was Active.

Take `CCN1C(=O)[C@]2(CO)CC[C@H](OC)[C@]34C1[C@](O)([C@@H](OC)[C@H]23)[C@@]1(O)C[C@H](OC)[C@H]2C[C@@H]4[C@@H]1[C@H]2OC`: the Activity entry with H9c2 [2] is “Non-Toxic”. The outcome in the series with H9c2 [1], in the series with H9c2 [4], with H9c2 [5], in the series with H9c2 [6], in the series with H9c2 [7] and in the series on H9c2 [8] was Active. Besides, the outcome with H9c2 [9] and in the series on H9c2 [10] was Active. Further, the IC50 in the series on H9c2 [3] was determined as 1.88 µM.

As for `CO[C@H]1[C@@H]2C[C@@H]3[C@H]1[C@](O)(C[C@@H]2OC)C(=O)[C@@H](OC)[C@@H]1[C@@]2(COC(C)=O)CC[C@H](OC)[C@@]31C=[N+]([O-])C2`, the result in the series with H9c2 [1] was inactive.

As for `CCN1C(=O)[C@]2(CO)CC[C@H](OC)[C@]34C1O[C@@](O)([C@@H](OC)[C@H]23)[C@@]1(O)C[C@H](OC)[C@@H]2C[C@@H]4[C@@H]1[C@H]2OC`, in the series on H9c2 [2], the Activity entry was “Non-Toxic”. Moreover, the outcome with H9c2 [1] was Active.

For the molecule `COC(=O)c1ccccc1NC(=O)CC(C)C(=O)O` (stereo not drawn), in the series with H9c2 [2], the Activity result is “Non-Toxic”. The IC50 with H9c2 [3] worked out at 1.9 µM.

By IC50 is commonly meant the midpoint of a concentration-inhibition curve.
